{
  "source": "patent US20160303112A1",
  "about": "(Laguna Pharmaceuticals, Inc., priority 2013, published 2016)",
  "key": {"\"pure\" atrial flutter": {"system": "\"pure\" atrial flutter", "test": "Conversion of Atrial Flutter (Example 6)", "format": "in vivo, human", "details": "any time within 24 hours, N 4", "experimental": "The vanoxerine or identical appearing placebo was randomly assigned and administered in a double-blinded fashion. Definition of “pure” atrial flutter: only Atrial Flutter (no AF) seen at −30, −15, and 0 time points. Conversion at any time within 24 hours."}, "[1]": {"details": "healthy subjects; cited from earlier work"}, "cardiac arrhythmia": {"system": "cardiac arrhythmia", "test": "Conversion to normal sinus rhythm in individual patients (Example 2)", "format": "in vivo, human", "details": "second patient, supraventricular tachycardia, 200 mg + 200 mg", "experimental": "Accordingly a further dose was required and administered to the patient. […] Wherein the patient is instructed to utilize a monitoring device with instructions on pricking the finger and providing a blood sample, for testing of the blood. Wherein the plasma concentration has not met at least 60 ng/ml, the second dose is to be taken to ensure that the patient achieves suitable plasma concentrations and converts to normal sinus rhythm."}, "[2]": {"details": "human, in vivo, 50 mg", "source_text": "The results are listed below in Table 7."}, "[3]": {"test": "Plasma concentrations after a single 300 mg dose of vanoxerine in 25 patients (Example 1)", "format": "in vivo, human", "details": "low concentration group", "experimental": "Each patient gave samples before administration of their dose, and then again at nine further time points, 30 minutes after administration, 1, 2, 3, 4, 6, 8, 12, and 24 hours post administration."}, "[4]": {"test": "Plasma concentration of vanoxerine in individual arrhythmia patients (Example 2)", "format": "in vivo, human"}, "[5]": {"test": "Adverse events in the placebo-controlled study (Example 6)", "format": "in vivo, human", "source_text": "The vanoxerine or identical appearing placebo was randomly assigned and administered in a double-blinded fashion."}, "[6]": {"test": "Daily doses for 14 days in fourteen healthy patients (Example 4)", "format": "in vivo, human", "details": "25, 75 and 125 mg daily for 14 days", "experimental": "A standardized meal was served 15 minutes prior to each dosing."}, "[7]": {"details": "first patient, atrial fibrillation, 200 mg"}, "[8]": {"details": "second patient, supraventricular tachycardia, first 200 mg dose"}, "[9]": {"details": "third patient, premature ventricular contractions, 200 mg"}},
  "data": [
    {"smiles": "Fc1ccc(C(OCCN2CCN(CCCc3ccccc3)CC2)c2ccc(F)cc2)cc1", "note": "[Vanoxerine, 1-[2-[bis(4-fluorophenyl)methoxy]ethyl]-4-(3-phenylpropyl)piperazine]", "values": [
      {"measurement": "Conversion of Atrial Flutter", "setting": "\"pure\" atrial flutter; 200 mg", "value": 50, "unit": "%"},
      {"measurement": "Conversion of Atrial Flutter", "setting": "\"pure\" atrial flutter; 300 mg", "value": 75, "unit": "%"},
      {"measurement": "Conversion of Atrial Flutter", "setting": "\"pure\" atrial flutter; 400 mg", "value": 75, "unit": "%"},
      {"measurement": "serum concentrations", "setting": "[1]", "value": "unexpected fluctuations in serum concentrations"},
      {"measurement": "time of conversion to normal sinus rhythm post administration of the first dose", "setting": "cardiac arrhythmia", "value": "about 6 hours"},
      {"measurement": "TMax", "setting": "[2]", "value": "TMax 1.27 +− 0.5 hr (0.5-2.0)"},
      {"measurement": "Highest plasma level at any time point", "setting": "[3]", "value": "~40", "unit": "ng/mL"},
      {"measurement": "maximum concentration in the plasma", "setting": "[4]; [7]", "value": "about 70 ng/ml"},
      {"measurement": "time of maximum concentration post administration", "setting": "[4]; [7]", "value": 60, "unit": "min"},
      {"measurement": "concentration at 180 minutes", "setting": "[4]; human, plasma, second patient, 180 minutes after first dose, further 200 mg given at 120 minutes", "value": 60, "unit": "ng/mL"},
      {"measurement": "maximum concentration in the plasma", "setting": "[4]; [8]", "value": "about 20 ng/ml"},
      {"measurement": "time of maximum concentration post administration", "setting": "[4]; [8]", "value": 60, "unit": "min"},
      {"measurement": "maximum concentration in the plasma", "setting": "[4]; [9]", "value": "about 150 ng/ml"},
      {"measurement": "time of maximum concentration post administration", "setting": "[4]; [9]", "value": 60, "unit": "min"},
      {"measurement": "number of AEs reported", "setting": "[5]; 200 mg (22)", "value": "reporting 8 AEs"},
      {"measurement": "number of SAE", "setting": "[5]; 200 mg (22)", "value": "(1 SAE)"},
      {"measurement": "number of AEs reported", "setting": "[5]; 300 mg (25)", "value": "reporting 12 AEs"},
      {"measurement": "number of AEs reported", "setting": "[5]; 400 mg (25)", "value": 23, "unit": "AEs"},
      {"measurement": "number of SAE", "setting": "[5]; 400 mg (25)", "value": "(1 SAE)"},
      {"measurement": "proarrhythmia", "setting": "[5]; 200, 300, 400 mg", "value": "absence of proarrhythmia"},
      {"measurement": "tolerability", "setting": "[5]; all doses (200, 300, 400 mg)", "value": "well tolerated"},
      {"measurement": "serious adverse events", "setting": "[5]; one at 200 mg, one at 400 mg, neither related to the study drug", "value": "only two serious adverse events"},
      {"measurement": "steady state serum levels versus dose", "setting": "[6]", "value": "disproportionately and statistically greater levels at higher doses"}
    ]}
  ]
}
